This note sets out measurements from US20250328351A1, “CARBONIC ANHYDRASE INHIBITORS AND ANTIBIOTICS AGAINST MULTIDRUG RESISTANT BACTERIA” (Purdue Research Foundation, priority 2018, published 2025).

Holding throughout (type): cell-based
The subject of assay [1] is Enterococcus faecium E417 - HM-965. Put plainly: MIC, broth microdilution (CLSI). To be noted: Enterococcus faecium, E417HM965, Table 1; TSB; read-out: MIC. Background: Dilution methods test growth across graded concentrations, often in twofold steps.
The test system of assay [2] is Enterococcus faecium Patient #2-1 - NR-31909. Put plainly: MIC, broth microdilution (CLSI). The settings on record: Enterococcus faecium, TSB, read-out: MIC.
Assay [3] deals with Enterococcus fecalis Strain SF 24397 NR31970. Nature of the assay: MIC, broth microdilution (CLSI). To be noted: Enterococcus, TSB, read-out: MIC.
For assay [4], the system named is Enterococcus faecium Patient #3-1 NR-31912. Nature of the assay: MIC, broth microdilution (CLSI). The settings on record: Enterococcus faecium, TSB, read-out: MIC. As for the experimental part:
(§1) The minimum inhibitory concentrations (MICs) of the compounds and control drugs were determined using the broth microdilution method, according to guidelines outlined by the Clinical and Laboratory Standards Institute (CLSI). Enterococci strains were grown aerobically overnight on tryptone soya agar plates at 37° C., afterwards a bacterial solution equivalent to 0.5 McFarland standard was prepared and diluted in tryptone soy broth (TSB) to achieve a bacterial concentration of about 5×10^5 CFU/mL and seeded in 96-well well plates. Compounds and control drugs were added in the first row of the 96-well plates and serially diluted along the plates. Plates were then incubated aerobically at 37° C. for 18-20 hours. MICs reported in Table 1 are the minimum concentration of the compounds/control drugs that could inhibit completely the visual growth of the bacteria.

Assay [5] deals with Enterococcus fecalis Strain SF 28073 - NR31972. Nature of the assay: MIC, broth microdilution (CLSI). The settings on record: Enterococcus, TSB, read-out: MIC. The method, then: as §1
Assay [6] concerns Enterococcus fecalis Strain SF24413 NR31971. Nature of the assay: MIC, broth microdilution (CLSI). To be noted: Enterococcus, TSB, read-out: MIC. As for the experimental part:
as §1

Assay [7] relates to MRSA NRS 384 (MRSA USA300). Put plainly: MIC, broth microdilution (CLSI). The settings on record: Staphylococcus aureus; Table 2; TSB. As for the experimental part: as §1, with “Institute (CLSI)^1. Staphylococci” for “Institute (CLSI). Enterococci”, “Table 2” for “Table 1”
Assay [8] deals with Staphylococcus epidermidis NRS 101. Put plainly: MIC, broth microdilution (CLSI). The settings on record: NRS101, Table 2, TSB. As for the experimental part: as §1, with “Institute (CLSI)^1. Staphylococci” for “Institute (CLSI). Enterococci”, “Table 2” for “Table 1”
Assay [9] has as its system Mutant-3 of Enterococcus fecalis NR 31975. Put plainly: microbe, parasite or virus in culture.
The test system of assay [10] is Mutant-4 of Enterococcus fecalis NR 31975. Put plainly: microbe, parasite or virus in culture.
Assay [11] concerns Mutant-6 of Enterococcus fecalis NR 31975. Nature of the assay: microbe, parasite or virus in culture.
In assay [12] the test system is Mutant-7 of Enterococcus fecalis NR 31975. Nature of the assay: microbe, parasite or virus in culture.
For assay [13], the system named is Mutant-12 of Enterococcus fecalis NR 31975. Nature of the assay: microbe, parasite or virus in culture.
Assay [14] relates to Mutant-14 of Enterococcus fecalis NR 31975. Nature of the assay: microbe, parasite or virus in culture.
Assay [15] deals with Mutant-15 of Enterococcus fecalis NR 31975. Nature of the assay: microbe, parasite or virus in culture.

Values after ≈ are worked out from the molar mass of the structure shown. Like-named read-outs stand apart in the source and are kept apart here. Some results are limits rather than exact numbers.

`CC(C)=CC(=O)Nc1nnc(S(N)(=O)=O)s1` [CAI0016, 3-Methyl-N-(5-sulfamoyl-1,3,4-thiadiazol-2-yl)but-2-enamide]: the MIC in assay [1] came to 0.25 µg/mL (≈ 0.953 µM); in assay [2] (Table 1), 0.5 µg/mL (≈ 1.91 µM); in assay [2] (Table 7), 0.25 µg/mL (≈ 0.953 µM); in assay [3] (Table 1), 0.5 µg/mL (≈ 1.91 µM); in [3] (Table 7) it was 0.25 µg/mL (≈ 0.953 µM); in assay [4] (Table 1), 1 µg/mL (≈ 3.81 µM). Besides, the MIC in assay [4] (Table 7) is 0.5 µg/mL (≈ 1.91 µM); in assay [5] (Table 1), 0.5 µg/mL (≈ 1.91 µM); in [5] (Table 7) it was 0.5 µg/mL (≈ 1.91 µM); in assay [6] (Table 1) it was 0.5 µg/mL (≈ 1.91 µM); in assay [6] (Table 7), 0.5 µg/mL (≈ 1.91 µM); in [7] it was above 64 µg/mL. The MIC in assay [8] was above 64 µg/mL; in assay [9], 4 µg/mL (≈ 15.2 µM); in assay [10], 8 µg/mL (≈ 30.5 µM); in assay [11] it was 16 µg/mL (≈ 61 µM); in [12], 4 µg/mL (≈ 15.2 µM); in assay [13], 8 µg/mL (≈ 30.5 µM). Also, the MIC in [14] was 4 µg/mL (≈ 15.2 µM); in [15], 8 µg/mL (≈ 30.5 µM).
